For 15 compounds, IC50 results are on record in patent US9382197B2, “Substituted hydroxamic acids and uses thereof” (Millennium Pharmaceuticals, Inc., priority 2010, dated 2016).

Each structure is given as a SMILES string. A value given as a limit tells only on which side of the number the result lay.

One assay has as its target T1, purified human HDAC6 (Homo sapiens, UniProt Q9UBN7).
T1 construct: purchased BPS Bioscience 5006
T1 sequence (Q9UBN7 1-1215): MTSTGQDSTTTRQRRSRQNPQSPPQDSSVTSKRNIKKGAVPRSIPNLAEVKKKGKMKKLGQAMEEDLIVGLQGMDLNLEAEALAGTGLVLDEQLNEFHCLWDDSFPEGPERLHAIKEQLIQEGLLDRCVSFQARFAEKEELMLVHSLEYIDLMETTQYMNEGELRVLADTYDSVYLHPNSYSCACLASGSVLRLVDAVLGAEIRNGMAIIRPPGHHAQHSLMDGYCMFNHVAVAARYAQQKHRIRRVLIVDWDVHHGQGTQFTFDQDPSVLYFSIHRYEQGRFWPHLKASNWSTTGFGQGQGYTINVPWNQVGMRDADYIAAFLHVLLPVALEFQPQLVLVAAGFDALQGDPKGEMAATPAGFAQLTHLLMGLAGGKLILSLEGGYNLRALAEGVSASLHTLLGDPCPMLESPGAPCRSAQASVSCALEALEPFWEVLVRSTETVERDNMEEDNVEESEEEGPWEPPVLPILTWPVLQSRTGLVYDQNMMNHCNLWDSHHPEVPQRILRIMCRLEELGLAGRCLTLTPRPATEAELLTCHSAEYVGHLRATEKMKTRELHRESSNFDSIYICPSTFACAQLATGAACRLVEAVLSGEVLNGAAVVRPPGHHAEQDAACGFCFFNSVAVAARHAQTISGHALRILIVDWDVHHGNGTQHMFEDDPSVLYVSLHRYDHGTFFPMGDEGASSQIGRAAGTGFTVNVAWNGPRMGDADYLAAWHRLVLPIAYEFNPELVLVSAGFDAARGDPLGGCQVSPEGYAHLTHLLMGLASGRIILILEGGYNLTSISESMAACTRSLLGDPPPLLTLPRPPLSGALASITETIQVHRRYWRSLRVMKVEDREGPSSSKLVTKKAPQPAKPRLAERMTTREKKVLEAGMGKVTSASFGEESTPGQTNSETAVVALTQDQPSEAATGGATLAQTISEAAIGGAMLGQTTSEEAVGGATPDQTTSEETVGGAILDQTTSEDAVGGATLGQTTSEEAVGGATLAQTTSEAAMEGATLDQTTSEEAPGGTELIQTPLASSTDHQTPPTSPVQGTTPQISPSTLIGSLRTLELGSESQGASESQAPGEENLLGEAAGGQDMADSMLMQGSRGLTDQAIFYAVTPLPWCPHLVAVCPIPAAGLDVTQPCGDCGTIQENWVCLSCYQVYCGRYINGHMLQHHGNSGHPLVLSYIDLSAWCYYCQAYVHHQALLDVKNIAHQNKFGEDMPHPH
Put plainly: HDAC6 Enzyme Assay. It counts as biochemical. Conditions: bin: greater than 500 nM and less than 1 μM (lower bound in nM, upper bound in μM). The method, boiled down:
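Purified human HDAC6 incubated 1 h at 30 °C with Ac-Arg-Gly-Lys(Ac)-AMC and compound; trichostatin A stop, trypsin release of AMC, fluorescence Ex 340/Em 460 nm. IC50 from concentration–response relative to DMSO.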
`Cc1nc(C(=O)NC(C)c2cccc(C(=O)NO)c2)cs1` (stereo not drawn) [Compound I-29, N-(1-{3-[(hydroxyamino)carbonyl]phenyl}ethyl)-2-methyl-1,3-thiazole-4-carboxamide] gave an IC50 of 500 to 1000 nM.

The same assay, now with this note: bin: greater than 1 μM.
In the case of `Cn1c(C(=O)NC(c2ccc(C(=O)NO)cc2)C(C)(C)C)cc2oc(-c3ccc(C(F)(F)F)cc3)cc21` (stereo not drawn) [Compound I-248, N-(1-{4-[(hydroxyamino)carbonyl]phenyl}-2,2-dimethylpropyl)-4-methyl-2-[4-(trifluoromethyl)phenyl]-4H-furo[3,2-b]pyrrole-5-carboxamide], the IC50 was > 1000 nM.

Consider `CC(NC(=O)CC1CC1)c1ccc(C(=O)NO)cc1` (stereo not drawn) [Compound I-379, 4-{1-[(cyclopropylacetyl)amino]ethyl}-N-hydroxybenzamide], for which the IC50 is > 1000 nM.

As for `Cn1nc2c(c1C(=O)NC(c1ccc(C(=O)NO)cc1)C(C)(C)C)CCCC2` (stereo not drawn) [Compound I-211, N-(1-{4-[(hydroxyamino)carbonyl]phenyl}-2,2-dimethylpropyl)-2-methyl-4,5,6,7-tetrahydro-2H-indazole-3-carboxamide], the IC50 was > 1000 nM.

Still in this assay, the particulars now being: purified human HDAC6, substrate Ac-Arg-Gly-Lys(Ac)-AMC, 1 hour at 30° C.; reported as bins.
Take `C[C@@H](NC(=O)c1cc2ccccc2s1)c1cccc(C(=O)NO)c1` [Compound I-321, N-((1R)-1-{3-[(hydroxyamino)carbonyl]phenyl}ethyl)-1-benzothiophene-2-carboxamide]: the IC50 was < 100 nM.

`CC(NC(=O)Nc1ccc(C(F)(F)F)cc1Cl)c1ccc(C(=O)NO)cc1` (stereo not drawn) [Compound I-163, 4-{1-[({[2-chloro-4-(trifluoromethyl)phenyl]amino}carbonyl)amino]ethyl}-N-hydroxybenzamide]: the IC50 was < 100 nM.

As to `C[C@@H](NC(=O)c1cc2ccccc2s1)c1ccc(C(=O)NO)cc1` [Compound I-184, N-((1R)-1-{4-[(hydroxyamino)carbonyl]phenyl}ethyl)-1-benzothiophene-2-carboxamide], the IC50 is < 100 nM.

The compound `Cc1nc(C(=O)NC(c2ccc(C(=O)NO)cc2)C(C)(C)C)cs1` (stereo not drawn) [Compound I-42, N-(1-{4-[(hydroxyamino)carbonyl]phenyl}-2,2-dimethylpropyl)-2-methyl-1,3-thiazole-4-carboxamide] registered an IC50 of 100 to 500 nM.

Turning to `CC(C)C(NC(=O)c1cnccn1)c1ccc(C(=O)NO)cc1` (stereo not drawn) [Compound I-203, N-(1-{4-[(hydroxyamino)carbonyl]phenyl}-2-methylpropyl)pyrazine-2-carboxamide], the IC50 lay within 100 to 500 nM.

In turn, `Cc1cc(C(=O)NC(c2ccc(C(=O)NO)cc2)C(C)C)c(C)o1` (stereo not drawn) [Compound I-252, N-(1-{4-[(hydroxyamino)carbonyl]phenyl}-2-methylpropyl)-2,5-dimethyl-3-furamide] had an IC50 of 100 to 500 nM.

On to `CC(NC(=O)Nc1cc(Cl)cc(Cl)c1)c1ccc(C(=O)NO)cc1` (stereo not drawn) [Compound I-388, 4-[1-({[(3,5-dichlorophenyl)amino]carbonyl}amino)ethyl]-N-hydroxybenzamide], for which the IC50 is 100 to 500 nM.

For the compound `CC(NC(=O)C12CC3CC(CC(C3)C1)C2)c1ccc(C(=O)NO)cc1` (stereo not drawn) [Compound I-3, N-(1-{4-[(hydroxyamino)carbonyl]phenyl}ethyl)adamantane-1-carboxamide], the IC50 is < 100 nM.

On to `Cn1ccc2cc(C(=O)NC(c3ccc(C(=O)NO)cc3)C(C)(C)C)ccc21` (stereo not drawn) [Compound I-145, N-(1-{4-[(hydroxyamino)carbonyl]phenyl}-2,2-dimethylpropyl)-1-methyl-1H-indole-5-carboxamide], for which the IC50 was < 100 nM.

In the case of `Cc1cc(C)n2nc(C(=O)NC(C)c3ccc(C(=O)NO)cc3)cc2n1` (stereo not drawn) [Compound I-160, N-(1-{4-[(hydroxyamino)carbonyl]phenyl}ethyl)-5,7-dimethylpyrazolo[1,5-a]pyrimidine-2-carboxamide], the IC50 is < 100 nM.

`Cc1c(C(=O)N[C@H](C)c2cccc(C(=O)NO)c2)sc2ccccc12` [Compound I-113, N-((1R)-1-{3-[(hydroxyamino)carbonyl]phenyl}ethyl)-3-methyl-1-benzothiophene-2-carboxamide]: the IC50 is 100 to 500 nM.

By IC50 is commonly meant the concentration that gives 50% inhibition. A low value points to inhibition by little substance.
